Laboratory results reported in patent publication US7244738B2, “Arylamine-substituted quinazolinone compounds useful as alpha 1A/B adrenergic receptor antagonists” (Roche Palo Alto LLC, priority 2003, dated 2007).
Where a name gives a salt, the structure may show the parent alone.

Row | Compound | melting point
1 | COc1cc2[nH]c(N(C)Cc3cccc(N4C(=O)CC(C)C4=O)c3)nc(=O)c2c(C)c1OC (stereo not drawn) [Example 65, 1-(3-{[(6,7-Dimethoxy-5-methyl-4-oxo-1,4-dihydro-quinazolin-2-yl)-methyl-amino]-methyl}-phenyl)-3-methyl-pyrrolidine-2,5-dione] | 217.8 to 219.2 °C
2 | COc1cc2[nH]c(N(C)Cc3ccc(CN(C)S(C)(=O)=O)cc3)nc(=O)c2c(C)c1OC [Example 10, N-(4-{[(6,7-Dimethoxy-5-methyl-4-oxo-1,4-dihydro-quinazolin-2-yl)-methyl-amino]-methyl}-benzyl)-N-methyl-methanesulfonamide] | 238 to 240 °C
3 | CCNCc1cccc(CN(C)c2nc(=O)c3c(C)c(OC)c(OC)cc3[nH]2)c1 [Example 113, 2-[(3-Ethylaminomethyl-benzyl)-methyl-amino]-6,7-dimethoxy-5-methyl-1H-quinazolin-4-one] | 158.2 to 158.9 °C
4 | COCC/C(=N\c1cccc(CN(C)c2nc(=O)c3c(OC)c(OC)c(OC)cc3[nH]2)c1)N(C)C.Cl | 145 °C
5 | COc1cc2[nH]c(N(C)Cc3cccc(/N=C(\C)N(C)C)c3)nc(=O)c2c(C#N)c1OC [Example 53, N′-(3-{[(5-Cyano-6,7-dimethoxy-4-oxo-1,4-dihydro-quinazolin-2-yl)-methyl-amino]-methyl}-phenyl)-N,N-dimethyl-acetamide] | 222.1 to 226.9 °C
6 | COc1cc2[nH]c(N(C)Cc3cccc(CNC4CC4)c3)nc(=O)c2c(C)c1OC [Example 66, 2-[(3-Cyclopropylaminomethyl-benzyl)-methyl-amino]-6,7-dimethoxy-5-methyl-1H-quinazolin-4-one] | 144.5 to 147.6 °C
7 | COc1cc2[nH]c(N(C)Cc3ccc(CN(C)CCC(F)(F)F)cc3)nc(=O)c2c(OC)c1OC [Example 1, 5,6,7-Trimethoxy-2-[methyl-(4-{[methyl-(3,3,3-trifluoro-propyl)-amino]-methyl}-benzyl)-amino]-1H-quinazolin-4-one] | 97.8 to 101.9 °C
8 | COc1ccc(CN(C)c2nc(=O)c3c(C)c(OC)c(OC)cc3[nH]2)cc1OCC(CO)CO [Example 6, 2-{[3-(3-Hydroxy-2-hydroxymethyl-propoxy)-4-methoxy-benzyl]-methyl-amino}-6,7-dimethoxy-5-methyl-1H-quinazolin-4-one] | 210.8 to 215.4 °C
9 | COCC(O)COc1ccc(CN(C)c2nc(=O)c3c(OC)c(OC)c(OC)cc3[nH]2)cc1 (stereo not drawn) [Example 2, 2-{[4-(2-Hydroxy-3-methoxy-propoxy)-benzyl]-methyl-amino}-5,6,7-trimethoxy-1H-quinazolin-4-one] | 108.1 to 111.5 °C
10 | COC(=O)N(C)c1cccc(CN(C)c2nc(=O)c3c(C)c(OC)c(OC)cc3[nH]2)c1 [Example 178, (3-{[(6,7-Dimethoxy-5-methyl-4-oxo-1,4-dihydro-quinazolin-2-yl)-methyl-amino]-methyl}-phenyl)-methyl-carbamic acid methyl ester] | 191.9 to 194.1 °C
11 | COCCOc1cccc(CN(C)c2nc(=O)c3c(C)c(OC)c(OC)cc3[nH]2)c1 [Example 160, 6,7-Dimethoxy-2-{[3-(2-methoxy-ethoxy)-benzyl]-methyl-amino}-5-methyl-1H-quinazolin-4-one] | 176.6 to 177.9 °C
12 | CCN(CCOC)Cc1cccc(CN(C)c2nc(=O)c3c(C)c(OC)c(OC)cc3[nH]2)c1 [Example 121, 2-[(3-{[Ethyl(2-methoxy-ethyl)-amino]-methyl}-benzyl)-methyl-azmino]-6,7-dimethoxy-5-methyl-1H-quinazolin-4-one] | 121.8 to 122.3 °C
13 | COc1cc2[nH]c(N(C)Cc3ccc4c(c3)CN(C)C4)nc(=O)c2c(C)c1OC [Example 38, 6,7-Dimethoxy-5-methyl-2-[methyl-(2-methyl-2,3-dihydro-1H-isoindol-5-ylmethyl)-amino]-1H-quinazolin-4-one] | 214.9 to 224.8 °C

Continued, values first:

Row | melting point | Compound
14 | 172.9 to 175.9 °C | COc1cc2[nH]c(N(C)Cc3cccc(N4CCC(O)C4=O)c3)nc(=O)c2c(OC)c1OC (stereo not drawn) (as salt: HCl) [Example 22, 2-{[3-(3-Hydroxy-2-oxo-pyrrolidin-1-yl)-benzyl]-methyl-amino}-5,6,7-trimethoxy-1H-quinazolin-4-one]
15 | 202.3 to 203.4 °C | COc1cc2[nH]c(N(C)Cc3cccc(C4=NCCO4)c3)nc(=O)c2c(OC)c1OC [Example 11, 2-{[3-(4,5-Dihydro-oxazol-2-yl)-benzyl]-methyl-amino}-5,6,7-trimethoxy-1H-quinazolin-4-one]
16 | 207 to 209.1 °C | COCCCNc1cccc(CN(C)c2nc(=O)c3c(OC)c(OC)c(OC)cc3[nH]2)c1 (as salt: HCl) [Example 188, 5,6,7-Trimethoxzy-2-{[3-(3-methoxy-propylamino)-benzyl]-methyl-amino}-1H-quinazolin-4-one]
17 | 156.4 to 162 °C | COc1cc2[nH]c(N(C)Cc3cccc(N4CCC(C)C4=O)c3)nc(=O)c2c(OC)c1OC (stereo not drawn) [Example 75, 5,6,7-Trimethoxy-2-{methyl-[3-(3-methyl-2-oxo-pyrrolidin-1-yl)-benzyl]-amino}-1H-quinazolin-4-one]
18 | 133.9 to 134.7 °C | CCNCc1cccc(CN(C)c2nc(=O)c3c(OC)c(OC)c(OC)cc3[nH]2)c1 [Example 43, 2-[(3-Ethylaminomethyl-benzyl)-methyl-amino]-5,6,7-trimethoxy-1H-quinazolin-4-one]
19 | 115 to 117 °C | COCC(=O)N(C)Cc1cccc(CN(C)c2nc(=O)c3c(OC)c(OC)c(OC)cc3[nH]2)c1 [Example 120, 2-Methoxy-N-methyl-N-(3-{[methyl-(5,6,7-trimethoxy-4-oxo-1,4-dihydro-quinazolin-2-yl)-amino]-methyl}-benzyl)-acetamide]
20 | 254.8 to 257.1 °C | COc1cc2[nH]c(N(C)Cc3cccc(N4CCOC4=O)c3)nc(=O)c2c(C)c1OC [Example 254, 6,7-Dimethoxy-5-methyl-2-{methyl-[3-(2-oxo-oxazolidin-3-yl)-benzyl]-amino}-1H-quinazolin-4-one]
21 | 200.1 to 202.1 °C | CCC1CCN(c2cccc(CN(C)c3nc(=O)c4c(C)c(OC)c(OC)cc4[nH]3)c2)C1=O (stereo not drawn) [Example 257, 2-{[3-(3-Ethyl-2-oxo-pyrrolidin-1-yl)-benzyl]-methyl-amino}-6,7-dimethoxy-5-methyl-1H-quinazolin-4-one]
22 | 283.1 to 286.2 °C | COc1cc2[nH]c(N(C)Cc3cccc(C(=O)O)c3)nc(=O)c2c(C)c1OC [Example 134, 3-{[(6,7-Dimethoxy-5-methyl-4-oxo-1,4-dihydro-quinazolin-2-yl)-methyl-amino]-methyl}-benzoic acid]
23 | 181.1 to 183.5 °C | COc1cc2[nH]c(N(C)Cc3cccc(N4CCCS4(=O)=O)c3)nc(=O)c2c(OC)c1OC [Example 253, {[3-(1,1-Dioxo-1λ6-isothiazolidin-2-yl)-benzyl]-methyl-amino}-5,6,7-trimethoxy-1H-quinazolin-4-one]
24 | 183.9 to 185.4 °C | COc1cc2[nH]c(N(C)Cc3cccc(OCS(C)(=O)=O)c3)nc(=O)c2c(OC)c1OC [Example F-6, 2-[(3-Methanesulfonylmethoxy-benzyl)-methyl-amino]-5,6,7-trimethoxy-1H-quinazolin-4-one]
